In PubChem BioAssay AID1645865 (Buhrlage Lab, Dana-Farber Cancer Institute and Novartis …, 2021):
Active and inactive are the calls of the source.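 The calls were made as follows: active = maximal inhibition of the USP30 enzyme reaching 30% or more across the dose series; inactive = the rest.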

The compounds below were run against Ubiquitin carboxyl-terminal hydrolase 30 (Homo sapiens) (UniProt Q70CQ3) (assay: ubiquitin-specific protease 30 DUB inhibitors, concentration-effect, biochemical, validation of primary actives (AID 1645865)). Conditions: purified USP30, Ub-rhodamine cleavage, fluorescence, 2 h.
Ubiquitin carboxyl-terminal hydrolase 30 (Homo sapiens), sequence (Q70CQ3 whole entry, looked up): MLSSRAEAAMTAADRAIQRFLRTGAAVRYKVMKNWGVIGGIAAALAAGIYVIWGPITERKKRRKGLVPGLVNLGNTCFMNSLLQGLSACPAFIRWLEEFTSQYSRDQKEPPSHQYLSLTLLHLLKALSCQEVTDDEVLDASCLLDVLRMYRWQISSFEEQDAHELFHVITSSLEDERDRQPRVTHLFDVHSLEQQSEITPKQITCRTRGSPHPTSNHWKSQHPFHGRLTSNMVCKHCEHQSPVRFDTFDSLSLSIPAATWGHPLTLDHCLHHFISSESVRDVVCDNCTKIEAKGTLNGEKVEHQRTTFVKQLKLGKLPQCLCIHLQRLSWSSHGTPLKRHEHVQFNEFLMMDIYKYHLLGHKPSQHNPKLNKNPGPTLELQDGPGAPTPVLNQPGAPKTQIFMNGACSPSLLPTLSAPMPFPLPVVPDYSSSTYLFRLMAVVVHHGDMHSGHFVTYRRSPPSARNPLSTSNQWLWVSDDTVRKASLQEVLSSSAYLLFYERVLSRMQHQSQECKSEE
For `COCCCn1c(C(=O)Nc2ccccc2OC)cc2c(=O)n3ccccc3nc21`, the IC50 was > 5 µM (inactive). For `O=C(OCc1ccc(F)cc1)c1ccc2ccccc2n1`, the IC50 was > 50 µM (inactive). `O=C(CCCC(=O)c1ccccc1)Nc1ccc(F)cc1` was tested, and the IC50 was 31.4 µM. `COc1ccc(CN2CCCC23CCCN(C(=O)CCc2cccnc2)C3)cc1F` (configuration not stated) showed an IC50 of 33.1 µM. In the case of `C=C(NC(=O)C(=C)NC(=O)c1csc(-c2ccc3c(n2)-c2csc(n2)-c2csc(n2)C(C(C)C2CO2)NC(=O)C(Cc2ccc(O)cc2)NC(=O)c2csc(n2)C(C(O)c2ccccc2)NC(=O)c2nc(sc2C)C(CC(N)=O)NC(=O)c2csc-3n2)n1)C(=O)O` (configuration not stated), the IC50 is reported as > 50 µM (inactive). In the case of `CCOC(=O)c1ccc(NC(=O)Cn2c(=O)n(CC(=O)NCc3ccco3)c(=O)c3ccccc32)cc1`, the IC50 is reported as 1.01 µM. For `CC(C)N1CC2CN(C(=O)c3ccccc3)CCN2Cc2ccccc21` (configuration not stated), the IC50 was > 50 µM (inactive). `COc1ccc(CN=C2NS(=O)(=O)C(c3ccc(F)cc3)=C2C)cc1OC` was tested, and the IC50 was 25.8 µM. With `NS(=O)(=O)c1ccc(CNS(=O)(=O)c2ccc(-c3ccccn3)s2)cc1` the IC50 was 24.5 µM. `CCn1c(SCc2cccc(C)c2)nnc1-c1cnccn1` was tested, and the IC50 was > 50 µM (inactive). With `Cc1c(C)n(-c2ccccc2)c2ncn(CC(=O)NC(C)c3ccccc3)c(=O)c12` (configuration not stated) the IC50 was 23 µM. Compound `Cc1cc(C)n(-c2ccc(C(=O)NCc3ccc(F)cc3)cn2)n1` has an IC50 of 37.4 µM. With `O=C(Nc1ccc2c(c1)OCO2)c1cc(-c2cccnc2)n(-c2ccccc2)n1` the IC50 was > 50 µM (inactive). For `COc1cccc(NC(=O)C2C3C=CC4(O3)C2C(=O)N(CCc2ccccc2Cl)C4C(=O)NC2CCCCC2)c1` (configuration not stated), the IC50 was 41.2 µM. Compound `CN(C)C(=O)CSc1nnc(-c2cccc(Cl)c2)n1-c1ccc(Cl)c(C(F)(F)F)c1` has an IC50 of 2.08 µM. For `O=C(Nc1cccc(C(F)(F)F)c1)c1cc2c(s1)-c1ccccc1OC2`, the IC50 was 2.13 µM. Work on `COc1ccc2nc(-c3ccc(NC(=O)c4cccc(OC)c4OC)cc3)cn2n1` yielded an IC50 of 1.89 µM. `COc1cc(OC)cc(-c2nc(-c3cn(-c4cccc(F)c4)nn3)no2)c1` showed an IC50 of 0.143 µM. In the case of `Cc1nn(C)c2c1[C@@H](c1ccc(F)c(Br)c1)[C@H](NC(=O)c1ccccc1)C(=O)N2`, the IC50 is reported as > 50 µM (inactive). For `Cn1c(=O)/c(=C/c2ccccc2)[nH]c(=O)/c1=C/c1ccccc1`, the IC50 was 14.6 µM. Compound `Cc1nn(-c2ccc(F)cc2)cc1-c1noc(C(=O)NCc2ccccn2)n1` has an IC50 of 27.7 µM. In the case of `NS(=O)(=O)c1cc(C(=O)OCC(=O)c2ccc3c(c2)OCCO3)ccc1Cl`, the IC50 is reported as > 50 µM (inactive). For `Cc1cc(/C=C2/C(=N)N3C(c4ccccc4)=CSC3=NC2=O)c(C)n1-c1ccc2ccccc2c1`, the IC50 was > 50 µM (inactive). Work on `O=C(Nc1oc2ccccc2c(=O)c1-c1ccc2c(c1)OCO2)C1CCCCC1` yielded an IC50 of 27.2 µM. `Cc1c(OCC(=O)Nc2nc3ccccc3[nH]2)ccc2c3c(c(=O)oc12)CCC3` gave an IC50 of 0.148 µM. Work on `CCOC(=O)c1ccc(NC(=O)C[n+]2cc(-c3ccc(Cl)cc3)n3c2CCC3)cc1` yielded an IC50 of 38.5 µM. In the case of `O=C(NC1CCN(Cc2ccccc2)CC1)c1[nH]nc2c1CCc1ccccc1-2`, the IC50 is reported as > 50 µM (inactive). In the case of `COc1ccc(CCNC(=O)c2ccc3ccccc3c2)cc1OC`, the IC50 is reported as > 50 µM (inactive). Compound `O=C(Cn1c(=O)n(Cc2ccc3c(c2)OCO3)c(=O)c2ncccc21)c1ccc(Cl)cc1` has an IC50 of 32.1 µM. With `Cc1cc(NC(=O)COc2ccc3oc4ccccc4c3c2)no1` the IC50 was > 50 µM (inactive). `Cc1noc(-c2ccc(N3CCCC(C(=O)NCc4ccc(F)cc4)C3)nc2)n1` (configuration not stated) showed an IC50 of 14.6 µM. Compound `COc1cccc(Cn2nc3n(CC(C)C)c(=O)c4ccc(C(=O)NCC(C)C)cc4n3c2=O)c1` has an IC50 of 2.37 µM. With `COc1ccc(C(=O)Nc2ccc3c(c2)C(=O)N(C)c2ccccc2O3)cc1` the IC50 was > 50 µM (inactive). `CCCCCC(=O)N1c2ccccc2NC2=C(C(=O)CC(c3ccc(C(C)(C)C)cc3)C2)C1c1ccncc1` (configuration not stated) showed an IC50 of 2.28 µM. `Cc1cccc(NC(=O)Nc2nnc(CC(=O)NCc3ccccc3)s2)c1` showed an IC50 of 6.01 µM. Compound `COC(=O)c1cc(C#N)c(NCc2ccccc2)nc1C` has an IC50 of 10.1 µM. With `CC1OC(CC(=O)O)CC23OC12C(=O)c1c(O)cccc1C3=O` (configuration not stated) the IC50 was > 50 µM (inactive). In the case of `c1ccc(CN2CCN(c3nc4ccccc4n4nnnc34)CC2)cc1`, the IC50 is reported as > 50 µM (inactive). In the case of `COc1ccc(-c2ccnc(-c3ccc(OCc4cccc(F)c4)cc3)n2)cc1`, the IC50 is reported as 38.2 µM. With `CC(=O)c1ccc(Cc2ncc(C(F)(F)F)cc2Cl)s1` the IC50 was > 50 µM (inactive). In the case of `Cc1ccc(NC(=O)c2c3c(nc4ccccc24)CCCCC3)c(C)c1`, the IC50 is reported as > 50 µM (inactive). `O=C(Nc1ccccc1Br)c1ccn(COc2ccccc2F)n1` gave an IC50 of 14.8 µM. `CCOC(=O)c1cnn(-c2ccc(C(=O)Nc3ccc(C)c(Cl)c3)cc2)c1N` showed an IC50 of 2.17 µM. With `O=C(COC(=O)c1ccc2ncsc2c1)Nc1ccccc1F` the IC50 was > 50 µM (inactive). With `COc1ccc(N2CCN(Cc3nnnn3Cc3ccc4c(c3)OCO4)CC2)cc1` the IC50 was > 50 µM (inactive). For `CCC(=O)Nc1ccc2c(c1)nc(CSc1nccc(C)n1)n2CC`, the IC50 was > 50 µM (inactive). In the case of `COc1ccc(NC(=O)c2ccc(Nc3nnc(C)c4ccccc34)cc2)cc1`, the IC50 is reported as > 50 µM (inactive). Compound `COc1ccc2nc(SCC(=O)Nc3ccc(NC(C)=O)cc3)c(C)cc2c1` has an IC50 of 4.95 µM. `O=C(Nc1ccc2ccccc2n1)c1ccc(Cl)cc1` showed an IC50 of 2.08 µM. For `CC1CCc2c(sc3ncnc(NC4CCN(CC(N)=O)CC4)c23)C1` (configuration not stated), the IC50 was > 50 µM (inactive). `O=C(/C=C/C=C/C=C/C1CCCCC1)NC1=C[C@@](O)(/C=C/C=C/C=C/C(=O)NC2=C(O)CCC2=O)[C@@H]2O[C@@H]2C1=O` was tested, and the IC50 was > 50 µM (inactive). `COc1ccc(NC(=O)c2nc3n(n2)-c2ccccc2S(=O)(=O)N3)cn1` was tested, and the IC50 was > 50 µM (inactive). `COc1ccc(CCNC(=O)c2cc(C3CC3)nc3c2cnn3C(C)C)cc1` was tested, and the IC50 was > 50 µM (inactive). `Cc1cc(C)c2cc(CN(CCc3ccccc3)C(=O)Nc3ccccc3)c(=O)[nH]c2c1` was tested, and the IC50 was > 50 µM (inactive). `CN(C)S(=O)(=O)c1ccc(C(=O)Nc2c(C#N)oc3ccccc23)cc1` was tested, and the IC50 was > 50 µM (inactive). `O=C(CCc1nnc2n(Cc3ccccc3Cl)c(=O)c3ccccc3n12)NCc1ccccn1` showed an IC50 of 25.5 µM. In the case of `CN1C(=O)COc2cc(-c3noc(C(=O)NC4CCCCCC4)n3)ccc21`, the IC50 is reported as 24.7 µM. In the case of `c1ccc2c(Cc3nc(-c4ccncc4)no3)cccc2c1`, the IC50 is reported as > 50 µM (inactive). `CN1CCC(N(C)S(=O)(=O)c2ccc(NC(=O)c3cccc(OCc4ccccc4)c3)cc2)CC1` was tested, and the IC50 was 34.3 µM. For `Cc1cccc(C(=O)Nc2ccccc2Sc2nc3c(c(=O)n(C)c(=O)n3C)n2C)c1`, the IC50 was 32.5 µM. In the case of `O=C(CSc1nnc(-c2ccncc2)n1Cc1ccccc1)c1ccc2[nH]c(O)cc2c1`, the IC50 is reported as > 50 µM (inactive). `N#C/C(=C/c1sc(N2CCOCC2)nc1-c1ccccc1)c1ccccn1` was tested, and the IC50 was > 50 µM (inactive). `NS(=O)(=O)c1ccc(NS(=O)(=O)c2ccc(NC(=O)Nc3ccc(Cl)cc3)cc2)cc1` showed an IC50 of 29.4 µM. With `COc1ccc(CCC(=O)Nc2ccc3c(c2)Sc2ncccc2C(=O)N3C)cc1` the IC50 was > 50 µM (inactive). `O=C(CN1C(=O)c2ccccc2Sc2ccc(C(=O)N3CCCC3)cc21)Nc1ccccc1Cl` was tested, and the IC50 was > 50 µM (inactive). With `O=C(CNC(=O)c1cccc(F)c1)Nc1nc2ccccc2[nH]1` the IC50 was 21.7 µM. In the case of `O=C(Cn1nnc(-c2ccc(F)cc2)n1)NCCc1ccccc1`, the IC50 is reported as > 50 µM (inactive). With `Cn1c(SCc2ccccc2)nnc1-c1csc(-c2ccccc2)n1` the IC50 was 22.5 µM. `O=C(CCCCn1c(=O)[nH]c2ccccc2c1=O)Nc1cccc(Cl)c1` gave an IC50 of 21.6 µM. In the case of `Cc1ccc(-n2nc(C(=O)Nc3ccc(C)cn3)c3ncn(C)c(=O)c32)cc1`, the IC50 is reported as 1.82 µM. In the case of `O=C(Nc1ccc(F)c(Cl)c1)c1ccc(N2CCCCS2(=O)=O)cc1Cl`, the IC50 is reported as > 50 µM (inactive). With `Cc1sc2nc(CN3CCCC3)nc(NCCc3ccc(Cl)cc3)c2c1C` the IC50 was > 50 µM (inactive). For `COc1ccc2c(c1)c(N1CCCC1=O)c(C(=O)NCc1cccc(OC)c1OC)n2C`, the IC50 was > 50 µM (inactive). In the case of `CCn1ccc2c(cc(C(=O)Nc3cc(F)ccc3F)n2C)c1=O`, the IC50 is reported as > 50 µM (inactive). `Cc1cc(O)c2c3c(c(O)c4c(c13)O[C@@H](C)C4(C)C)C(=O)C2=O` was tested, and the IC50 was 35.1 µM. In the case of `CC1=C(C)C(N(c2ccccc2)c2ccccc2)N(CCC(C)C)C1=O` (configuration not stated), the IC50 is reported as 36.1 µM. With `CC(C)Cc1nc2oc3c(N(C)CCO)ncnc3c2c2c1CCC2` the IC50 was > 50 µM (inactive). Compound `Cc1ccc2c(c1)[C@]1(C(=O)N2)[C@@H](C(=O)c2ccccc2)[C@]2(C(=O)Nc3ccccc32)[C@@H]2CCCN21` has an IC50 of 35.1 µM. `CN1CC2CN(C(=O)c3ccc(F)cc3)CCN2Cc2ccccc21` (configuration not stated) was tested, and the IC50 was > 50 µM (inactive). For `Cn1c(=O)c2c(ncn2CC(=O)NC2CCCc3ccccc32)n(C)c1=O` (configuration not stated), the IC50 was > 50 µM (inactive). In the case of `COc1ccc(NCc2nc3ccccc3n2Cc2ccccc2)cc1`, the IC50 is reported as > 50 µM (inactive). Compound `COc1ccc(NC(=O)C2CC(=O)Nc3cc(-c4ccccc4)nn32)cc1` (configuration not stated) has an IC50 of 22.5 µM. For `COc1ccc(OC)c(NC(=O)c2cc(Cl)ccc2OC)c1`, the IC50 was 1.59 µM. Work on `O=C(NCc1ccc2c(c1)OCO2)c1nnc(Cc2ccc(F)cc2)o1` yielded an IC50 of 44.2 µM. For `FC(F)(F)c1cccc(N2CCN(c3nc4ccccc4n4nnnc34)CC2)c1`, the IC50 was > 50 µM (inactive). `O=C(CN1C=NC2=NS(=O)(=O)c3ccccc3N21)Nc1cc(F)ccc1F` showed an IC50 of 36.6 µM. In the case of `COc1ccc(-n2ccc(=O)c(-c3nc(-c4ccccc4F)no3)n2)cc1OC`, the IC50 is reported as > 50 µM (inactive). Work on `CC1=C(c2ccc(F)cc2)S(=O)(=O)NC1=NCC(=O)Nc1cccc(F)c1` yielded an IC50 of 19.8 µM. `O=C(Nc1ccc2c(c1)N(C(=O)C1CCCC1)CC2)c1c(F)cccc1F` gave an IC50 of 24.2 µM. For `NS(=O)(=O)c1ccc(NC(=O)Cn2cnc3cc([N+](=O)[O-])ccc3c2=O)cc1`, the IC50 was > 50 µM (inactive). Work on `Cc1ccc(O)c(-c2cc(C(=O)Nc3ccccc3Cl)[nH]n2)c1` yielded an IC50 of 5.93 µM. In the case of `CN(C)c1cc(-n2cnc(C(=O)NCc3ccccc3Cl)c2)ncn1`, the IC50 is reported as 37.8 µM. Compound `CC1CCc2sc(NC(=O)c3ccccc3Oc3ccccc3)c(C(N)=O)c2C1` (configuration not stated) has an IC50 of 3.28 µM. `O=C(/C=C/c1ccc(F)cc1)N1CCC(Cc2ccccc2)CC1` showed an IC50 of 41.9 µM. With `Cc1c(-c2ccc(C#N)cc2)oc2ccc(Br)cc2c1=O` the IC50 was 2.57 µM. `CC(C)(C)c1ccc(Cn2nnc3c(=O)[nH]c(C4CCN(S(=O)(=O)c5ccc(S(=O)(=O)NC6CC6)cc5)CC4)nc32)cc1` showed an IC50 of 48.7 µM. `Cn1c(C(=O)NCc2ccccn2)cc2c(=O)[nH]c3ccccc3c21` was tested, and the IC50 was > 50 µM (inactive).
